Each compound was assayed against T1, mTOR (Homo sapiens, UniProt P42345) (assay: In Vitro mTOR Kinase Assay (Echo), Test (a)(ii)). Conditions: table of enzyme assay Test (a)(ii); read-out: Test (a)(ii) IC50.
T1 construct: FLAG; made in house
T1 sequence (P42345 1362-2549): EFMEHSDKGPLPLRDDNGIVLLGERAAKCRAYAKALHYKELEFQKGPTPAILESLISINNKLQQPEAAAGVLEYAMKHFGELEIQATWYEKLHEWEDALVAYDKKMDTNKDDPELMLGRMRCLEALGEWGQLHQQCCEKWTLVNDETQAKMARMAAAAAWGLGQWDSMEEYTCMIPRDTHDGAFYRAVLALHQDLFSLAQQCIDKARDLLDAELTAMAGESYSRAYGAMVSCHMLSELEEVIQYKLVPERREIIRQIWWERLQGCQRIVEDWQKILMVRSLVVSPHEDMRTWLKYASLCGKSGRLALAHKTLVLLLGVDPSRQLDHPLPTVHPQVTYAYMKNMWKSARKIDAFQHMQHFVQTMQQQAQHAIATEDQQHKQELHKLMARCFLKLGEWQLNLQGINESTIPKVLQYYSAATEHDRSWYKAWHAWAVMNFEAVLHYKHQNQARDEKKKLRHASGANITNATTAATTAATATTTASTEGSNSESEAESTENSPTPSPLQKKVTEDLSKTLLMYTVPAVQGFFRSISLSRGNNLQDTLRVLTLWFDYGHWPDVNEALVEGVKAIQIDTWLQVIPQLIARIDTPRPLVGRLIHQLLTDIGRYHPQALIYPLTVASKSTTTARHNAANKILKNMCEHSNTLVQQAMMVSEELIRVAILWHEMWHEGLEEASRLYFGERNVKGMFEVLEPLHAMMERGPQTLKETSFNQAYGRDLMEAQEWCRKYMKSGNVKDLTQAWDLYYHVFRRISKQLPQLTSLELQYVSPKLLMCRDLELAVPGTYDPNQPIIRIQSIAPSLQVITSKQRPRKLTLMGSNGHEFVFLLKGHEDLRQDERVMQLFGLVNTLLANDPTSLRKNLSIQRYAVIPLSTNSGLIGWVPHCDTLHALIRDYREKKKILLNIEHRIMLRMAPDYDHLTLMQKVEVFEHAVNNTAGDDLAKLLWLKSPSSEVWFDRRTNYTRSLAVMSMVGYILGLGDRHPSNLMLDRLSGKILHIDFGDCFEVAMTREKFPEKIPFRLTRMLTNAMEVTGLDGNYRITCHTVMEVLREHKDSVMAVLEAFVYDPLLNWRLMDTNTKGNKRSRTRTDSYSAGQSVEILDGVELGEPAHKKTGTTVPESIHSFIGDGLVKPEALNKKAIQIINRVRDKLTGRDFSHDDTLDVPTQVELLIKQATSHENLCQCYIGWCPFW
Assay type: biochemical
How it was run: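 Inhibition of truncated mTOR (1362-2549, FLAG-tagged, purified from stably transfected HEK293 cells) is measured as reduced AlphaScreen signal from a phospho-T389-recognising antibody bound to the biotinylated peptide product. Kinase incubation lasts 2 hours at room temperature. Potency is given as IC50.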
`CC[C@H]1COCCN1c1cc(C2(S(=O)(=O)c3ccccc3)CC2)nc(-c2ccc(NC(=O)NCC3(O)CC3)cc2)n1` [Example 74i, 1-[4-[4-[1-(benzenesulfonyl)cyclopropyl]-6-[(3S)-3-ethylmorpholin-4-yl]pyrimidin-2-yl]phenyl]-3-[(1-hydroxycyclopropyl)methyl]urea] showed an IC50 of 9.25 nM. With `Cc1nn(C(F)F)c(C)c1S(=O)(=O)C1(c2cc(N3CCOC[C@@H]3C)nc(-c3ccc(NC(=O)NC4CC4)cc3)n2)CC1` [Example 75, 3-Cyclopropyl-1-[4-[4-[1-[1-(difluoromethyl)-3,5-dimethylpyrazol-4-yl]sulfonylcyclopropyl]-6-[(3S)-3-methylmorpholin-4-yl]pyrimidin-2-yl]phenyl]urea] the IC50 was 29 nM. `CNC(=O)Nc1ccc(-c2nc(N3CCOC[C@@H]3C)cc(C3(S(=O)(=O)c4c(C)nn(C(F)F)c4C)CC3)n2)cc1` [Example 75a, 1-[4-[4-[1-[1-(difluoromethyl)-3,5-dimethylpyrazol-4-yl]sulfonylcyclopropyl]-6-[(3S)-3-methylmorpholin-4-yl]pyrimidin-2-yl]phenyl]-3-methylurea] was tested, and the IC50 was 43.5 nM. Work on `CCNC(=O)Nc1ccc(-c2nc(N3CCOC[C@@H]3C)cc(C3(S(=O)(=O)c4c(C)nn(C(F)F)c4C)CC3)n2)cc1` [Example 75b, 3-[4-[4-[1-[1-(difluoromethyl)-3,5-dimethylpyrazol-4-yl]sulfonylcyclopropyl]-6-[(3S)-3-methylmorpholin-4-yl]pyrimidin-2-yl]phenyl]-1-ethylurea] yielded an IC50 of 38.1 nM. `Cc1nn(C(F)F)c(C)c1S(=O)(=O)C1(c2cc(N3CCOC[C@@H]3C)nc(-c3ccc(NC(=O)NCCO)cc3)n2)CC1` [Example 75c, 1-[4-[4-[1-[1-(difluoromethyl)-3,5-dimethylpyrazol-4-yl]sulfonylcyclopropyl]-6-[(3S)-3-methylmorpholin-4-yl]pyrimidin-2-yl]phenyl]-3-(2-hydroxyethyl)urea] showed an IC50 of 33.9 nM. For `Cc1nn(C(F)F)c(C)c1S(=O)(=O)C1(c2cc(N3CCOC[C@@H]3C)nc(-c3ccc(NC(=O)NCC(F)F)cc3)n2)CC1` [Example 75d, 3-(2,2-difluoroethyl)-1-[4-[4-[1-[1-(difluoromethyl)-3,5-dimethylpyrazol-4-yl]sulfonylcyclopropyl]-6-[(3S)-3-methylmorpholin-4-yl]pyrimidin-2-yl]phenyl]urea], the IC50 was 39.9 nM. For `Cc1nn(C(F)F)c(C)c1S(=O)(=O)C1(c2cc(N3CCOC[C@@H]3C)nc(-c3ccc(NC(=O)NCCF)cc3)n2)CC1` [Example 75e, 1-[4-[4-[1-[1-(difluoromethyl)-3,5-dimethylpyrazol-4-yl]sulfonylcyclopropyl]-6-[(3S)-3-methylmorpholin-4-yl]pyrimidin-2-yl]phenyl]-3-(2-fluoroethyl)urea], the IC50 was 37 nM. In the case of `Cc1nn(C(F)F)c(C)c1S(=O)(=O)C1(c2cc(N3CCOC[C@@H]3C)nc(-c3ccc(NC(=O)Nc4cnn(C)c4)cc3)n2)CC1` [Example 75f, 1-[4-[4-[1-[1-(difluoromethyl)-3,5-dimethylpyrazol-4-yl]sulfonylcyclopropyl]-6-[(3S)-3-methylmorpholin-4-yl]pyrimidin-2-yl]phenyl]-3-(1-methylpyrazol-4-yl)urea], the IC50 is reported as 60.8 nM. `C[C@H]1COCCN1c1cc(C2(S(=O)(=O)c3ccccc3Cl)CC2)nc(-c2ccc(NC(=O)NC3CC3)cc2)n1` [Example 76, 1-[4-[4-[1-(2-Chlorophenyl)sulfonylcyclopropyl]-6-[(3S)-3-methylmorpholin-4-yl]pyrimidin-2-yl]phenyl]-3-cyclopropylurea] showed an IC50 of 6.87 nM. `CNC(=O)Nc1ccc(-c2nc(N3CCOC[C@@H]3C)cc(C3(S(=O)(=O)c4ccccc4Cl)CC3)n2)cc1` [Example 76a, 1-[4-[4-[1-(2-chlorophenyl)sulfonylcyclopropyl]-6-[(3S)-3-methylmorpholin-4-yl]pyrimidin-2-yl]phenyl]-3-methylurea] showed an IC50 of 4.07 nM. In the case of `CCNC(=O)Nc1ccc(-c2nc(N3CCOC[C@@H]3C)cc(C3(S(=O)(=O)c4ccccc4Cl)CC3)n2)cc1` [Example 76b, 3-[4-[4-[1-(2-chlorophenyl)sulfonylcyclopropyl]-6-[(3S)-3-methylmorpholin-4-yl]pyrimidin-2-yl]phenyl]-1-ethylurea], the IC50 is reported as 7.19 nM. With `C[C@H]1COCCN1c1cc(C2(S(=O)(=O)c3ccccc3Cl)CC2)nc(-c2ccc(NC(=O)NCCO)cc2)n1` [Example 76c, 1-[4-[4-[1-(2-chlorophenyl)sulfonylcyclopropyl]-6-[(3S)-3-methylmorpholin-4-yl]pyrimidin-2-yl]phenyl]-3-(2-hydroxyethyl)urea] the IC50 was 3.19 nM. `C[C@H]1COCCN1c1cc(C2(S(=O)(=O)c3ccccc3Cl)CC2)nc(-c2ccc(NC(=O)NCC(F)F)cc2)n1` [Example 76d, 1-[4-[4-[1-(2-chlorophenyl)sulfonylcyclopropyl]-6-[(3S)-3-methylmorpholin-4-yl]pyrimidin-2-yl]phenyl]-3-(2,2-difluoroethyl)urea] gave an IC50 of 9.24 nM. Compound `C[C@H]1COCCN1c1cc(C2(S(=O)(=O)c3ccccc3Cl)CC2)nc(-c2ccc(NC(=O)NCCF)cc2)n1` [Example 76e, 1-[4-[4-[1-(2-chlorophenyl)sulfonylcyclopropyl]-6-[(3S)-3-methylmorpholin-4-yl]pyrimidin-2-yl]phenyl]-3-(2-fluoroethyl)urea] has an IC50 of 5.66 nM. For `C[C@H]1COCCN1c1cc(C2(S(=O)(=O)c3ccccc3Cl)CC2)nc(-c2ccc(NC(=O)Nc3cnn(C)c3)cc2)n1` [Example 76f, 1-[4-[4-[1-(2-chlorophenyl)sulfonylcyclopropyl]-6-[(3S)-3-methylmorpholin-4-yl]pyrimidin-2-yl]phenyl]-3-(1-methylpyrazol-4-yl)urea], the IC50 was 6.78 nM. `C[C@H]1COCCN1c1cc(C2(S(=O)(=O)c3ccc(C#N)cc3)CC2)nc(-c2ccc(NC(=O)NC3CC3)cc2)n1` [Example 77, 1-[4-[4-[1-(4-Cyanophenyl)sulfonylcyclopropyl]-6-[(3S)-3-methylmorpholin-4-yl]pyrimidin-2-yl]phenyl]-3-cyclopropylurea] was tested, and the IC50 was 8.21 nM. Compound `CNC(=O)Nc1ccc(-c2nc(N3CCOC[C@@H]3C)cc(C3(S(=O)(=O)c4ccc(C#N)cc4)CC3)n2)cc1` [Example 77a, 1-[4-[4-[1-(4-cyanophenyl)sulfonylcyclopropyl]-6-[(3S)-3-methylmorpholin-4-yl]pyrimidin-2-yl]phenyl]-3-methylurea] has an IC50 of 5.24 nM. `CCNC(=O)Nc1ccc(-c2nc(N3CCOC[C@@H]3C)cc(C3(S(=O)(=O)c4ccc(C#N)cc4)CC3)n2)cc1` [Example 77b, 3-[4-[4-[1-(4-cyanophenyl)sulfonylcyclopropyl]-6-[(3S)-3-methylmorpholin-4-yl]pyrimidin-2-yl]phenyl]-1-ethylurea] gave an IC50 of 8.6 nM. Compound `C[C@H]1COCCN1c1cc(C2(S(=O)(=O)c3ccc(C#N)cc3)CC2)nc(-c2ccc(NC(=O)NCCO)cc2)n1` [Example 77c, 1-[4-[4-[1-(4-cyanophenyl)sulfonylcyclopropyl]-6-[(3S)-3-methylmorpholin-4-yl]pyrimidin-2-yl]phenyl]-3-(2-hydroxyethyl)urea] has an IC50 of 4.37 nM. Work on `C[C@H]1COCCN1c1cc(C2(S(=O)(=O)c3ccc(C#N)cc3)CC2)nc(-c2ccc(NC(=O)NCC(F)F)cc2)n1` [Example 77d, 1-[4-[4-[1-(4-cyanophenyl)sulfonylcyclopropyl]-6-[(3S)-3-methylmorpholin-4-yl]pyrimidin-2-yl]phenyl]-3-(2,2-difluoroethyl)urea] yielded an IC50 of 10.1 nM. In the case of `C[C@H]1COCCN1c1cc(C2(S(=O)(=O)c3ccc(C#N)cc3)CC2)nc(-c2ccc(NC(=O)NCCF)cc2)n1` [Example 77e, 1-[4-[4-[1-(4-cyanophenyl)sulfonylcyclopropyl]-6-[(3S)-3-methylmorpholin-4-yl]pyrimidin-2-yl]phenyl]-3-(2-fluoroethyl)urea], the IC50 is reported as 5.17 nM. In the case of `C[C@H]1COCCN1c1cc(C2(S(=O)(=O)c3ccc(C#N)cc3)CC2)nc(-c2ccc(NC(=O)Nc3cnn(C)c3)cc2)n1` [Example 77f, 1-[4-[4-[1-(4-cyanophenyl)sulfonylcyclopropyl]-6-[(3S)-3-methylmorpholin-4-yl]pyrimidin-2-yl]phenyl]-3-(1-methylpyrazol-4-yl)urea], the IC50 is reported as 9.19 nM. Compound `Cc1nc(C)c(S(=O)(=O)C2(c3cc(N4CCOC[C@@H]4C)nc(-c4ccc(NC(=O)NC5CC5)cc4)n3)CC2)s1` [Example 78, 3-Cyclopropyl-1-[4-[4-[1-[(2,4-dimethyl-1,3-thiazol-5-yl)sulfonyl]cyclopropyl]-6-[(3S)-3-methylmorpholin-4-yl]pyrimidin-2-yl]phenyl]urea] has an IC50 of 41.8 nM. Compound `CNC(=O)Nc1ccc(-c2nc(N3CCOC[C@@H]3C)cc(C3(S(=O)(=O)c4sc(C)nc4C)CC3)n2)cc1` [Example 78a, 1-[4-[4-[1-[(2,4-dimethyl-1,3-thiazol-5-yl)sulfonyl]cyclopropyl]-6-[(3S)-3-methylmorpholin-4-yl]pyrimidin-2-yl]phenyl]-3-methylurea] has an IC50 of 15.3 nM. In the case of `CCNC(=O)Nc1ccc(-c2nc(N3CCOC[C@@H]3C)cc(C3(S(=O)(=O)c4sc(C)nc4C)CC3)n2)cc1` [Example 78b, 3-[4-[4-[1-[(2,4-dimethyl-1,3-thiazol-5-yl)sulfonyl]cyclopropyl]-6-[(3S)-3-methylmorpholin-4-yl]pyrimidin-2-yl]phenyl]-1-ethylurea], the IC50 is reported as 33.3 nM. `Cc1nc(C)c(S(=O)(=O)C2(c3cc(N4CCOC[C@@H]4C)nc(-c4ccc(NC(=O)NCCO)cc4)n3)CC2)s1` [Example 78c, 1-[4-[4-[1-[(2,4-dimethyl-1,3-thiazol-5-yl)sulfonyl]cyclopropyl]-6-[(3S)-3-methylmorpholin-4-yl]pyrimidin-2-yl]phenyl]-3-(2-hydroxyethyl)urea] gave an IC50 of 20.9 nM. With `Cc1nc(C)c(S(=O)(=O)C2(c3cc(N4CCOC[C@@H]4C)nc(-c4ccc(NC(=O)NCC(F)F)cc4)n3)CC2)s1` [Example 78d, 3-(2,2-difluoroethyl)-1-[4-[4-[1-[(2,4-dimethyl-1,3-thiazol-5-yl)sulfonyl]cyclopropyl]-6-[(3S)-3-methylmorpholin-4-yl]pyrimidin-2-yl]phenyl]urea] the IC50 was 17.5 nM.
